Measured values as given in patent US8846620B2, “Resorption enhancers as additives to improve the oral formulation of non-anticoagulant sulfated polysaccharides” (Baxter International Inc., priority 2011, dated 2014).

What was measured:
CaCo-2 cell model = CaCo-2 cell model bioavailability / resorption screening of NASPs with permeation enhancers; format: in vitro ADME, human; settings: for Average Percent Resorption at 8 hours: Table 5; for basolateral concentrations in the presence of a gastrointestinal epithelial barrier permeation enhancer: compared with absence of enhancer, figures
Description: (§1) The bioavailability of NASPs in combination with gastrointestinal epithelial barrier permeation enhancers of interest were studied using the CaCo-2 cell model screening. This method utilizes a human colon carcinoma cell line that expresses a wide range of transporter proteins on its cell membranes. Cell layers are grown on a membrane surface that separates two compartments (24-well plate). An example of the experimental setup for these experiments is illustrated in FIG. 1. Selected NASP and gastrointestinal epithelial barrier permeation enhancer samples were dissolved in RPMI cell medium at a concentration of 1 mg/mL and applied onto the cells in the apical compartment. Cells were incubated at 37° C. in 5% CO2. Medium samples were removed from the basolateral and apical compartment at different time points. The condition of the cell layer was monitored by measurement of the transepithelial electrical resistance (TEER). Samples were analyzed by thrombin generation assay (CAT). NASP concentration was calculated based on activity from CAT assay. Experimental details of thrombin generation assays and other blood coagulation assays are described in U.S. patent application Ser. No. 11/140,504, filed on May 27, 2005, now U.S. Pat. No. 7,767,654, and U.S. patent application Ser. No. 13/006,396, filed on Jan. 13, 2011, the disclosures of which is herein incorporated by reference.
All NASP and gastrointestinal epithelial barrier permeation enhancer samples were diluted in such a way that the sample concentration was in the range of increasing procoagulant activity. Based on the initial load concentration values, apical and basolateral concentrations were determined at 2 hour increments (e.g., 2 hours, 4 hours, 6 hours, 8 hours, including 24 hours). Based on the determined basolateral concentrations, the percent resorption was determined for each combination of compounds (i.e., NASP and gastrointestinal epithelial barrier permeation enhancers).
FIGS. 4-8 illustrate resorption of some natural NASPs of interest in Caco-2 cell models as determined by TGA and liquid chromatography/mass spectrometry in combination with different gastrointestinal epithelial barrier permeation enhancers. FIGS. 9 and 10 illustrate resorption of some synthetic NASPs of interest in Caco-2 cell models as determined by TGA and liquid chromatography/mass spectrometry in combination with different gastrointestinal epithelial barrier permeation enhancers.

CaCo-2 cell layer = experiment: Condition of the cell layer by transepithelial electrical resistance (TEER) in CaCo-2 screening; format: cell-based, human
Description: as §1, with “reference. […]” for “reference.”

[1] = Bromelain/Chitosan 0.5 mg/mL: 3%
[2] = in the presence of bromelain at 8 hours
[3] = in the presence of deoxycholate at 8 hours

Average Percent Resorption at 8 hours (CaCo-2 cell model; Bromelain 0.5 mg/mL) [%] | Average Percent Resorption at 8 hours (CaCo-2 cell model; [1]) [%] | Average Percent Resorption at 8 hours (CaCo-2 cell model; Chitosan 3%) [%] | Average Percent Resorption at 8 hours (CaCo-2 cell model; Deoxycholate 0.08%) [%] | Average Percent Resorption at 8 hours (CaCo-2 cell model; No enhancer) [%] | Average Percent Resorption at 8 hours (CaCo-2 cell model; Deoxycholate 0.06%) [%] | transepithelial electrical resistance after removal of the permeation enhancer and the NASP (CaCo-2 cell layer; after removal of enhancer and maltopentaose) | Average Percent Resorption at 8 hours (CaCo-2 cell model; Sodium Caprate 12 mM) [%] | basolateral concentrations in the presence of a gastrointestinal epithelial barrier permeation enhancer (CaCo-2 cell model) | resorption in Caco-2 cell models (CaCo-2 cell model; [2]) | resorption in Caco-2 cell models (CaCo-2 cell model; in the presence of chitosan) | resorption in Caco-2 cell models (CaCo-2 cell model; [3]) | resorption in Caco-2 cell models (CaCo-2 cell model; in the presence of sodium caprate) | resorption in Caco-2 cell models (CaCo-2 cell model; in the presence of sodium caprate at 8 hours) | Substance | transepithelial electrical resistance after treatment with the permeation enhancer alone (CaCo-2 cell layer; enhancer alone, no NASP)
17.7 | 44.5 | 5.4 | 27.2 | 3.8 | – | – | – | – | – | – | – | – | – | Sulfated 6-Carboxyicodextrin [Sulfated 6-Carboxyicodextrin 14 kD] | –
48.6 | 158.8 | 35.7 | 113.2 | 0 | 67.4 | increased | 13.1 | increased | increased substantially | strong increased resorption | increased substantially | strong increased resorption | – | Sulfated Maltopentose | –
24.7 | 59.8 | 15.6 | 36.1 | 0 | 20.6 | – | 19.3 | increased | increased substantially | – | increased substantially | – | increased substantially | Sulfated β-cyclodextrin | –

More lines, now with the values behind:

Substance | Average Percent Resorption at 8 hours (CaCo-2 cell model; Bromelain 0.5 mg/mL) [%] | Average Percent Resorption at 8 hours (CaCo-2 cell model; [1]) [%] | Average Percent Resorption at 8 hours (CaCo-2 cell model; Chitosan 3%) [%] | Average Percent Resorption at 8 hours (CaCo-2 cell model; Deoxycholate 0.08%) [%] | Average Percent Resorption at 8 hours (CaCo-2 cell model; No enhancer) [%] | Average Percent Resorption at 8 hours (CaCo-2 cell model; Deoxycholate 0.06%) [%] | transepithelial electrical resistance after removal of the permeation enhancer and the NASP (CaCo-2 cell layer; after removal of enhancer and maltopentaose) | Average Percent Resorption at 8 hours (CaCo-2 cell model; Sodium Caprate 12 mM) [%] | basolateral concentrations in the presence of a gastrointestinal epithelial barrier permeation enhancer (CaCo-2 cell model) | resorption in Caco-2 cell models (CaCo-2 cell model; [2]) | resorption in Caco-2 cell models (CaCo-2 cell model; in the presence of chitosan) | resorption in Caco-2 cell models (CaCo-2 cell model; [3]) | resorption in Caco-2 cell models (CaCo-2 cell model; in the presence of sodium caprate) | resorption in Caco-2 cell models (CaCo-2 cell model; in the presence of sodium caprate at 8 hours) | transepithelial electrical resistance after treatment with the permeation enhancer alone (CaCo-2 cell layer; enhancer alone, no NASP)
Sulfated 6-Carboxyicodextrin [Sulfated 6-Carboxyicodextrin 24 kD] | 10.0 | 36.8 | 2.6 | 14.7 | 1.6 | 4.9 | – | – | – | – | – | – | – | – | –
bromelain | – | – | – | – | – | – | – | – | – | – | – | – | – | – | recovery of the transepithelial electrical resistance
